Experimental data from patent publication US8541442B2, “Indole derivatives as anticancer agents” (Janssen Pharmaceutica N.V., priority 2009, dated 2013).

System: p53 in A2780 cells
Test: p53 ELISA (preservation of p53 in A2780 cells)
Format: cell-based, human
Conditions: 16 hours treatment
Procedure: The capacity of the present compounds to preserve p53 in A2780 cells was measured with the p53 enzyme linked immunosorbent assay. The p53 assay is a “sandwich” enzyme immunoassay employing two polyclonal antibodies. A polyclonal antibody, specific for the p53 protein, has been immobilized onto the surface of the plastic wells. Any p53 present in the sample to be assayed will bind to the capture antibody. The biotinylated detector polyclonal antibody also recognizes p53 protein, and will bind to any p53, which has been retained by the capture antibody. The detector antibody, in turn, is bond by horseradish peroxidase-conjugated streptavidin. The horseradish peroxidase catalyses the conversion of the chromogenic substrate o-phenylene diamine, the intensity of which is proportional to the amount of p53 protein bond to the plate. The colored reaction product is quantified using a spectrophotometer. Quantitation is achieved by the construction of a standard curve using known concentrations of purified recombinant HIS tagged p53 protein (see example C.1.).
A2780 cells (ATCC) were cultivated in RPMI 1640 supplemented with 10% fetal calf serum (FCS), 2 mM L-glutamine and gentamycin at 37° C. in a humidified incubator with 5% CO2.
A2780 cells were seeded at 20.000 cells per well in a 96 well plate, cultured for 24 hours and treated with compound for 16 hours at 37° C. in a humidified incubator. After incubation, the cells were washed once with phosphate-buffered saline and 30 μl, per well, low salt RIPA buffer (20 mM tris, pH7.0, 0.5 mM EDTA, 1% Nonidet P40, 0.5% DOC, 0.05% SDS, 1 mM PMSF, 1 μg/ml aprotinin and 0.5 μ/ml leupeptin) was added. Plates were placed on ice for 30 minutes to complete the lysis. p53 protein was detected in de lysates by using the sandwich ELISA, described below.
High binding polystyrene EIA/RIA 96 well plates (Costar 9018) were coated with the capture antibody pAb1801 (Abcam ab28-100) at a concentration of 1 μg/ml in coating buffer (0.1 M NaHCO3 pH8.2), 50 μl per well. The antibody was allowed to adhere overnight at 4° C. Coated plates were washed once with phosphate-buffered saline (PBS)/0.05% Tween 20 and 300 μl of blocking buffer (PBS, 1% bovine serum albumins (BSA)) was added, for an incubation period of 2 hours at room temperature. Dilutions of purified recombinant HIS tagged p53 protein, ranging from 3-200 ng/ml, were made in blocking buffer and used as standards.
Plates were washed twice with PBS/0.05% Tween 20 and blocking buffer or standards were added at 80 μl/well. To the standards, 20 μl of lysis buffer was added. The samples were added to the other wells at 20 μl lysate/well. After an overnight incubation at 4° C., plates were washed twice with PBS/0.05% Tween 20. Aliquots of 100 μl secondary polyclonal antibody p53(FL-393) (Tebubio, sc-6243) at a concentration of 1 μg/ml in blocking buffer were added to each well and allowed to adhere for 2 hours at room temperature. Plates were washed three times with PBS/0.05% Tween 20. Detection antibody anti-rabbit HRP (sc-2004, Tebubio) at 0.04 μg/ml in PBS/1% BSA was added and incubated for 1 hour at room temperature. Plates were washed three times with PBS/0.05% Tween 20 and 100 μl of substrate buffer was added (substrate buffer was prepared shortly before use by adding 1 tablet of 10 mg o-phenylene diamine (OPD) from Sigma and 125 μl 3% H2O2 to 25 ml OPD buffer: 35 mM citric acid, 66 mM Na2HPO4, pH5.6). After 5 to 10 minutes, colour reaction was stopped by adding 50 μl stop buffer (1 M H2SO4) per well. The absorbance at dual wavelengths of 490/655 nm was measured using a Biorad micro plate reader and the results were then analyzed.
For each experiment, controls (containing no drug) and a blank incubation (containing no cells or drugs) were run in parallel. The blank value was subtracted from all control and sample values. For each sample, the value of p53 (in absorbance units) was expressed as the percentage of the value for p53 present in the control. […]

In order of rising “p53-elisa LAD (lowest dose giving at least 140% of the value for p53 present in the control)” value:
1. COC1CCc2c(Nc3ccc(NCCc4c[nH]c5c(C(C)(C)O)cccc45)cc3)ccnc21 (single isomer, unassigned) [Compound 24]  0.03 µM
2. COC1CCc2c(Nc3ccc(NCCc4c[nH]c5c(C(C)(C)O)cccc45)c(C)c3)ccnc21 (single isomer, unassigned) [Compound 29]  0.03 µM
3. Cc1cc(Nc2ccnc3c2CCC3O)ccc1NCCc1c[nH]c2c(C(C)(C)O)cccc12 (stereo not shown) [Compound 18]  0.03 µM
4. Cc1cc(Nc2ccnc3c2CCC3O)ccc1NCCc1c[nH]c2c(C(C)O)cccc12 (single isomer, unassigned) [Compound 12]  0.10 µM
5. Cc1cc(Nc2ccnc3c2CCC3O)ccc1NCCc1c[nH]c2c(C(C)O)cccc12 (single isomer, unassigned) [Compound 15]  0.10 µM
6. COC1CCc2c(Nc3ccc(NCCc4c[nH]c5c(C(C)(C)O)cccc45)cc3)ccnc21 (single isomer, unassigned) [Compound 25]  0.10 µM
7. Cc1cc(Nc2ccnc3c2CCC3(C)O)ccc1NCCc1c[nH]c2c(C(C)(C)O)cccc12 (single isomer, unassigned) [Compound 26]  0.10 µM
8. COC1CCc2c(Nc3ccc(NCCc4c[nH]c5c(C(C)(C)O)cccc45)c(C)c3)ccnc21 (single isomer, unassigned) [Compound 28]  0.10 µM
9. CC(C)(O)c1cccc2c(CCNc3ccc(Nc4ccnc5c4CCC5(C)O)cc3)c[nH]c12 (single isomer, unassigned) [Compound 30]  0.10 µM
10. CC(C)(O)c1cccc2c(CCNc3ccc(Nc4ccnc5c4CCC5(C)O)cc3)c[nH]c12 (single isomer, unassigned) [Compound 31]  0.10 µM
11. Cc1cc(Nc2ccnc(CO)c2)ccc1NCCc1c[nH]c2c(C(C)(C)O)cccc12 [Compound 19]  0.10 µM
12. COc1cc(Nc2ccnc3c2CCC3O)ccc1NCCc1c[nH]c2c(C(C)(C)O)cccc12 (stereo not shown) [Compound 11]  0.30 µM
13. COC1CCc2c(Nc3ccc(NCCc4c[nH]c5c(C(C)O)cccc45)c(C)c3)ccnc21 (stereo not shown) [Compound 16]  0.30 µM
14. Cc1cc(Nc2ccnc3c2CCC3(C)O)ccc1NCCc1c[nH]c2c(C(C)O)cccc12 (stereo not shown) [Compound 10]  1.0 µM
15. Cc1cc(Nc2ccnc3c2CCC3O)ccc1NCCc1c[nH]c2c(CCO)cccc12 (single isomer, unassigned) [Compound 23]  3.00 µM
16. Cc1cc(Nc2ccncc2)ccc1NCCc1c[nH]c2c(C(O)C(C)C)cccc12 (stereo not shown) [Compound 22]  3.00 µM

Same assay, conditions: Homo sapiens, A2780, 16 h, 16 hours treatment, read-out: p53-elisa LAD (lowest dose giving at least 140% of the value for p53 present in the control)

In order of falling minimal effective concentration:
1. OCc1cccc2c(CCNc3ccc(Nc4ccnc5c4CCC5O)cc3)c[nH]c12 (stereo not shown) [Compound 6]  1 µM
2. Cc1cc(Nc2ccnc3c2CCC3O)ccc1NCCc1c[nH]c2c(CCC(C)O)cccc12 (stereo not shown) [Compound 9]  1 µM
3. C=C(C)c1cccc2c(CCNc3ccc(Nc4ccnc5c4CCC5OC)cc3)c[nH]c12 (stereo not shown) [Compound 7]  0.3 µM
4. Cc1cc(Nc2ccnc3c2CCC3(C)O)ccc1NCCc1c[nH]c2c(C(C)(C)O)cccc12 (single isomer, unassigned) [Compound 27]  0.1 µM
5. Cc1cc(Nc2ccnc3c2CCC3(C)O)ccc1NCCc1c[nH]c2c(C(C)(C)O)cccc12 (stereo not shown) [Compound 1]  0.1 µM
6. Cc1cc(Nc2ccncc2)ccc1NCCc1c[nH]c2c(C(C)(C)O)cccc12 [Compound 2]  0.1 µM
7. Cc1cc(Nc2ccnc3c2CCC3=O)ccc1NCCc1c[nH]c2c(C(C)O)cccc12 (stereo not shown) [Compound 4]  0.1 µM
8. Cc1cc(Nc2ccnc(CO)c2)ccc1NCCc1c[nH]c2c(C(C)O)cccc12 (stereo not shown) [Compound 5]  0.1 µM
9. Cc1cc(Nc2ccnc3c2CCC3O)ccc1NCCc1c[nH]c2c(C(C)(C)O)cccc12 (stereo not shown) [Compound 20]  0.03 µM
